Results from PMC3914206.

How the values were obtained:
panel of 442 kinases [1] = molecular target: T1, panel of 442 kinases (Homo sapiens, UniProt P00533, T790M); assay type: binding; conditions: Compound Concentration 10 µM
T1 construct: purchased KINOMEscan
Description: (§1) We assessed the selectivity of members of this scaffold using the KINOMEscan methodology across a near comprehensive panel of 442 kinases [[18,27]].

panel of 442 kinases [2] = molecular target: T2, panel of 442 kinases (Homo sapiens, UniProt Q13873); assay type: binding; conditions: Compound Concentration 10 µM
T2 construct: purchased KINOMEscan
T2 sequence (Q13873 27-1038): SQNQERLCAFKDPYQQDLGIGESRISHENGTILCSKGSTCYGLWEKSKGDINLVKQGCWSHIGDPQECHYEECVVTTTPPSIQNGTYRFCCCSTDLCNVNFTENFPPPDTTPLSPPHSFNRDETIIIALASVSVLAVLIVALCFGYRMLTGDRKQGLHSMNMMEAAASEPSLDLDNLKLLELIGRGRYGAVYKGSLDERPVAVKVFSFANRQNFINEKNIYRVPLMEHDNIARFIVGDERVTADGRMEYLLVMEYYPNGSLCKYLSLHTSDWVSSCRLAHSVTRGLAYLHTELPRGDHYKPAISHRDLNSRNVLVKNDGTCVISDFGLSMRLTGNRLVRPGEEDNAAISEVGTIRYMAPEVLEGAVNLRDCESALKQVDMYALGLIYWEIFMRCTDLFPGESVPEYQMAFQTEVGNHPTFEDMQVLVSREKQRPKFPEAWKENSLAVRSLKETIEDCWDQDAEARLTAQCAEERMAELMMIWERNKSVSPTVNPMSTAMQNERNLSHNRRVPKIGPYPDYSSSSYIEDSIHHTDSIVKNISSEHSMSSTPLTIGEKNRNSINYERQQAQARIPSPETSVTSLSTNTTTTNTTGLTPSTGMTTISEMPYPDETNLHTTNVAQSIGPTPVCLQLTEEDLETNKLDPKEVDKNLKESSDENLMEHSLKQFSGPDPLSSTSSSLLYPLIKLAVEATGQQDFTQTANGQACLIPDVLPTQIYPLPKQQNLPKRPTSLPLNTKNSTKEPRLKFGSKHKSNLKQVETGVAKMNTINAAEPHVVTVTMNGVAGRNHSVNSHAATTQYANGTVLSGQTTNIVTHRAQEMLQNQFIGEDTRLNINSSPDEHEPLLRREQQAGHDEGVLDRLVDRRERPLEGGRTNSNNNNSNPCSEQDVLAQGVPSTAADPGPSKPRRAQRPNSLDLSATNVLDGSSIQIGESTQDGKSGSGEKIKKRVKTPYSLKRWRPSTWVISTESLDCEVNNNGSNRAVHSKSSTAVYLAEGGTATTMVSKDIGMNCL
Description: as §1

T1 sequence (P00533 25-1210 T790M): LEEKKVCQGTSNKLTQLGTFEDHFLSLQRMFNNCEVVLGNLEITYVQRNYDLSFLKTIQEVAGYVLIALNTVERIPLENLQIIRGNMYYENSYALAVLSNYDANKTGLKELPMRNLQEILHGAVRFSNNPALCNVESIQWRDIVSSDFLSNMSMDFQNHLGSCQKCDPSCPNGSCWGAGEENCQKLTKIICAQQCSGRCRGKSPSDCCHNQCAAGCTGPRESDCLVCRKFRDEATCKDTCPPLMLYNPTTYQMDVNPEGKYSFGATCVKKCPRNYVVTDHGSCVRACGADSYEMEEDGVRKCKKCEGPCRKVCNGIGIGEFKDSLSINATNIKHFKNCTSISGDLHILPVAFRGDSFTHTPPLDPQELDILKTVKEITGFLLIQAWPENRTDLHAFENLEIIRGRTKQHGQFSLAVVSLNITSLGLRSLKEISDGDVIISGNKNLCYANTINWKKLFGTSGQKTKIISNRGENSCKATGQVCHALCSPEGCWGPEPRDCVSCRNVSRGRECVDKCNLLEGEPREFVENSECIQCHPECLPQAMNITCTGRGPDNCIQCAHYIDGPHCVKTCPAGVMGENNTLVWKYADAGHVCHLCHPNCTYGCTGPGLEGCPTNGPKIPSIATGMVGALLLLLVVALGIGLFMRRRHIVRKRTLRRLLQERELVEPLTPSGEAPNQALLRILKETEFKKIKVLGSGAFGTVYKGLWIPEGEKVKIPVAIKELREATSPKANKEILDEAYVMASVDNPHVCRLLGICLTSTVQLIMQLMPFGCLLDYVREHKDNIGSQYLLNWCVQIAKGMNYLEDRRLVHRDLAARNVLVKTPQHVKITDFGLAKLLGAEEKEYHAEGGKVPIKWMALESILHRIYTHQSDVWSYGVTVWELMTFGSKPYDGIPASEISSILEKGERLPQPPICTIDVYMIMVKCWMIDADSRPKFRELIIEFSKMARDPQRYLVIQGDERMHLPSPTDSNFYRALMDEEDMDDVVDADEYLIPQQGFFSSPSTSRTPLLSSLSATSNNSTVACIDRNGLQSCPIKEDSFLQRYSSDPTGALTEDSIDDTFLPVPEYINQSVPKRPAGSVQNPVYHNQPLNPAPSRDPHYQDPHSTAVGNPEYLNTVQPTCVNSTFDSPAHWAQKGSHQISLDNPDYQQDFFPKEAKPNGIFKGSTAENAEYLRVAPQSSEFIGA

SMILES | KINOMEscan: EGFR(T790M) (panel of 442 kinases [1]) | KINOMEscan: BMPR2 (panel of 442 kinases [2])
COc1cc(C(=O)N2CCC(N3CCN(C)CC3)CC2)ccc1Nc1ncc2c(n1)N(C)c1ccccc1C(=O)N2C [15 (LRRK2-IN-1)] | 88 | 100
COc1cc(C(=O)N2CCC(N3CCN(C)CC3)CC2)ccc1Nc1ncc2c(n1)N1CCc3cccc(c31)C(=O)N2C [Compound 24] | 76 | –
COc1cc(C(=O)N2CCC(N3CCN(C)CC3)CC2)ccc1Nc1ncc2c(n1)N(C1CCCC1)c1ccccc1C(=O)N2C [Compound 25, 11-cyclopentyl-2-((2-methoxy-4-(4-(4-methylpiperazin-1-yl)piperidine-1-carbonyl)phenyl)amino)-5-methyl-5H-benzo[e]pyrimido[5,4-b][1,4]diazepin-6(11H)-one] | 89 | 100
CCOc1cc(C(=O)N2CCC(N3CCN(C)CC3)CC2)ccc1Nc1ncc2c(n1)N(C1CCCC1)c1ccccc1C(=O)N2C [Compound 26] | 100 | 93
